We go through 87 molecules from a melting point compilation (Tetko et al.; mined from patent text by program, amines drawn as free bases though some values may be those of a salt).

Some results are limits rather than exact numbers.

The molecule `CC(C)C[C@@H](CO)NC(=O)[C@@H](NC(=O)c1ccc(C=O)o1)C(C)C` came in with a melting point of 39 to 41 °C. The molecule `Cc1oc(-c2ccc(C(F)(F)F)cc2)nc1COc1cccc(C#CC(C)n2oc(=O)[nH]c2=O)c1` (configuration not stated) gave a melting point of 84 to 86 °C. As to `CCOC(=O)C1=C(N)OC(C)=C(C(C)=O)C1c1cccc([N+](=O)[O-])c1` (configuration not stated), the melting point amounted to 181 °C.

With `Cc1cc(C)nc(N(C(=O)n2cncn2)c2ccccc2)n1`, the melting point stood at 157 °C. `COc1ccc2c(c1)c(Cc1nc(-c3csc4ccccc34)cs1)c(C)n2C(=O)c1ccc(Cl)cc1` returned a melting point of 68 to 72 °C. With `Cc1nn(CCO)c(C)c1Sc1ccc(Cl)cc1` the figure was 88.9 to 90.3 °C.

For the molecule `CCOc1cc(-c2ccc(-c3ccc(N=Nc4ccccn4)c(OCC)c3)o2)ccc1N=Nc1ccccn1`, the melting point fell in the range of 205 to 210 °C. As for `C=CCOP1(=S)OCc2cc(C)cnc2O1` (configuration not stated), the melting point was 79 to 80 °C. `COc1ccc(N2Cc3cnc(Nc4ccccc4)nc3N(C[C@@H](C)O)C2=O)cc1`: the melting point was in the range of 189 to 193 °C. With `CCCc1nc2c(N)nc3cc(OCCCO)ccc3c2s1` the figure was 157 to 160 °C; with `CC1CCCCC1OC(=O)c1cc(NC(=O)c2ccccc2)ccc1Cl` (configuration not stated), 121 to 122 °C. Regarding `CCc1c(-c2ccc(O)cc2)c2cc(COC)c3cccc1n32`, the melting point fell in the range of 137 to 141 °C.

`COc1ncnc2cc(Br)sc12`: the melting point lay within 111 to 113 °C. As for `CNC(=O)N1CC(Oc2ccccc2C(F)(F)F)C1`, the figure is 134 to 136 °C; as for `Nc1cnc2c(c1)CCCC2`, 97 to 98 °C. Regarding `O=C1Nc2cccc(-c3cccc(NC(=O)c4cccc(Br)c4)c3)c2/C1=C/c1ccc[nH]1`, the melting point lay in the range of 251 to 253 °C. Regarding `CC(=O)N(O)CC1=C(n2ccccc2=O)c2cc(C(F)(F)F)ccc2OC1(C)C`, the melting point was 188 °C. With `COC(=O)c1ccc(Cn2c(=O)c(C)c3sc(C(=O)NCc4ccc(OC)cc4)cn3c2=O)cc1`, the melting point was in the range of 163 to 165 °C. On to `CCC(CC)COc1c(-c2ccc(S(C)(=O)=O)cc2)cnn(-c2ccc(F)cc2)c1=O`, for which the melting point lay in the range of 107 to 108 °C. `Cn1[nH]c(=O)n(-c2ccc(Cl)cc2F)c1=S`: the melting point amounted to 75 °C. Turning to `O=C(Nc1ccc2ccc(-c3ccc(F)cc3)nc2n1)c1cccc(Br)c1`, the melting point was 210 °C. `CNC(=O)c1ccccc1Nc1nc(Nc2ccc3c(c2)CCCC(=O)N3)ncc1Cl` showed a melting point of 283 °C. `O=C(O)c1ccc(Cl)cc1NCc1cccnc1` had a melting point of 235 to 236 °C. Consider `CN1C(C(=O)Nc2nc3ccccc3s2)=C(O)c2ccc3ccccc3c2S1(=O)=O`, for which the melting point was 262 °C. Turning to `CN(N)c1nc(C(F)(F)F)nc2ccccc12`, the melting point was in the range of 130 to 132 °C. As to `CC(C)(C)OC(=O)NCc1nc(C(=O)NNC(=O)OCc2ccccc2)cc(OCc2ccccc2)c1OCc1ccccc1`, the melting point is 128 to 129 °C. As for `CCOC(=O)C1=C(C)NC(N)=C(C(=O)OC(C)C)C1c1cccc([N+](=O)[O-])c1` (configuration not stated), the melting point lay in the range of 175 to 176 °C.

For the molecule `CC(=O)Oc1ccccc1-c1ccc(=O)[nH]n1`, the melting point fell in the range of 181 to 184 °C.

On to `O=C(O)c1nc2n(n1)-c1cccnc1N(C1CCCCC1)C2`, for which the melting point was 170 to 176 °C. `COc1ccc(-c2c(Cl)c(CN3C(=O)CCC3=O)nc3sc4c(c23)CC(C)(C)C(O)C4)cc1` (configuration not stated) gave a melting point of 227 to 229 °C. As for `CC(C)c1nc2cc(N)ccn2n1`, the figure is 174 to 176 °C; as for `COC1CC(N)C(O)C(C)O1` (configuration not stated), 130 °C. Regarding `CCC(C)CNC(=O)C(CC(O)C(CC(C)C)NC(=O)C(Cc1cscn1)NC(=O)C(Cc1cccc2ccccc12)NC(=O)OC(C)(C)C)C(C)(C)O` (mixture of isomers), the melting point was 90 to 92 °C.

Molecule `CCC(C)(C)OC(=O)N1CCC(c2ccc(COc3ccc(S(C)(=O)=O)cc3)nc2)CC1` came in with a melting point of 114 to 115 °C. As to `CC(=O)N1c2ccccc2C[C@H]1C(N)=O`, the melting point was greater than 260 °C. As for `CN(Cc1ccc2c(c1)Nc1nccnc1S2)C(N)=C[N+](=O)[O-]`, the figure is greater than 265 °C; as for `COC(F)(F)c1nc2nc(C)c(F)cc2cc1C(=O)C1C(=O)CCCC1=O`, 143 to 146 °C; as for `COC(=O)c1c(-c2ccccc2C)c2cc(C)c(C)cc2[nH]c1=O`, 288 to 289 °C. As for `Fc1ccc(C(CCCN2CCN(c3n[nH]c4cc(Cl)ccc34)CC2)c2ccc(F)cc2)cc1`, the figure is 202 to 204 °C; as for `CN1CCN(C2=Nc3cc(Cl)ccc3Nc3nn(C)nc32)CC1`, 200 to 203 °C.

Turning to `NNC(=O)c1sc2cnccc2c1Oc1ccc(C(F)(F)F)cc1`, the melting point is 146 to 147 °C. On to `O=C(CBr)c1ccc(OCc2ccccc2)c(CCOCc2ccccc2)c1`, for which the melting point lay within 53 to 56 °C. As for `O=C(NCc1ccccn1)c1ccc(C=Cc2ccccc2OCc2ccccc2)cc1`, the figure is 123 to 127 °C. Molecule `O=C(C1=Cc2ccccc2C1)C12CC3CC(CC(C3)C1)C2` displayed a melting point of 124 to 125 °C. For the molecule `CCOc1c(CO)cnc2c1cnn2CC`, the melting point lay within 100 to 102 °C. `CC(C)n1c(=O)n(C(=O)NCC2CCN(CC3(C(=O)O)CCC3)CC2)c2ccccc21` came in with a melting point of 173 °C. Molecule `O=C(NO)c1cc2ccccc2cn1` came in with a melting point of 160 to 165 °C.

`Cc1ccc(N2N=C3c4cc(C(C)O)sc4CCC3CC2=O)cc1` (configuration not stated) registered a melting point of 129 to 145 °C.

With `CN1CCN(c2cc(N)c([N+](=O)[O-])cc2F)CC1`, the melting point was in the range of 154 to 155 °C.

In turn, `Cc1[nH]c2cccc(NC(=O)NCc3ccc(Br)cc3)c2c1C` showed a melting point of 190 °C.

On to `O=C(c1ccccc1)c1ccc(Nc2ccccc2NC(=O)C(F)(F)F)cc1`, for which the melting point was 187 to 191 °C. Consider `CC(C)(C)c1ccc(C=NOCCCOc2ccc(CC(=O)O)cc2)cc1`, for which the melting point lay in the range of 56.2 to 59.2 °C. Molecule `CC(=O)Oc1ccc(C=CC(=O)NC23CC4CC(CC(C4)C2)C3)cc1[N+](=O)[O-]` had a melting point of 179 to 180 °C. As to `CCCCc1nc(Cl)c(CO)n1Cc1ccc(-c2ccccc2-c2n[nH]c(=O)o2)cc1`, the melting point was in the range of 163 to 164 °C.

On to `CC(C)Oc1cc(COc2ccc(C(F)(F)F)cc2)cc(COc2cc(CCC(=O)O)n(-c3ccccc3)n2)c1`, for which the melting point lay within 55 to 58 °C. Take `CC(C)(C)OC(=O)c1ccccc1-c1ccc(CNC(=O)C2(N)CCOCC2)cc1`: the melting point is 125 to 127 °C. For `CC(C)CCCC(C)CC(=O)Oc1ccc(-c2ccc(OC(=O)CC(C)CCCC(C)C)cc2)cc1` (configuration not stated), the melting point lay within 72 to 73 °C.

In turn, `O=c1c2c(CCc3ccncc3)n[nH]c2c2cccnc2n1-c1cccc([N+](=O)[O-])c1` displayed a melting point of 161 to 165 °C. `CCOC(=O)CCOc1cccc2c1CCC2=O` registered a melting point of 90 to 92 °C. With `COC(=O)c1ccc2cc(-c3ccccc3)[nH]c2c1` the figure was 208 to 210 °C; with `CC(=O)Nc1c(C(=O)c2ccco2)[nH]c2cc(Cl)ccc12`, 227 to 228 °C; with `O=C(O)COc1ccc(Br)cc1C(=O)NCc1ccc(Br)cc1F`, 153 to 155 °C.

The molecule `CO[C@@H]1[C@@H](OC)[C@H](C)O[C@@H](ONC(=O)c2ccc(-c3cn(-c4ccc(OC(F)(F)F)cc4)cn3)cc2)[C@@H]1OC` gave a melting point of 185 °C. In turn, `N#CC(=Cc1cc(O)c(O)c([N+](=O)[O-])c1)C(N)=O` had a melting point of 296 to 298 °C. Regarding `CCOC(=O)c1nn(-c2ccc(C)cc2)cc1-c1ccccc1`, the melting point lay within 115 to 117 °C. `CNC(=O)C1(Nc2nc(Nc3cc4c(cc3OC)CCN(CC(=O)N(C)C)CC4)ncc2Cl)CCCC1`: the melting point lay in the range of 75 to 87 °C. On to `COc1ccc(OCCOc2ccc(C(=O)C(=O)O)cc2)cc1OC`, for which the melting point is 140 to 141 °C. Molecule `COc1ccc(C)cc1NC(=O)Nc1ccc(N2CCN(C(=O)Nc3ccc(CCO)cc3C)CC2)cc1` registered a melting point of 119 to 121 °C. Molecule `Cc1cn(C)cc1-c1cc2nccnc2[nH]1` came in with a melting point of 210 °C. The molecule `COc1ccc(NC=C2C(=O)OC(=O)c3cc4cccc(C)c4nc32)cc1OC` registered a melting point of 280 to 281 °C.

Take `COC(=O)C(C)(C)c1ccc(OCCNC(=O)C2Cc3ccccc3N2S(=O)(=O)c2ccc(-c3cc(C(F)(F)F)ccc3Cl)cc2)cc1` (configuration not stated): the melting point was in the range of 66 to 72 °C.

`N#Cc1c(Cl)c2ccccc2[nH]c1=O`: the melting point is greater than 250 °C. As for `CCCCc1nc2c(N)nc3c(c2n1CCNC(=O)c1cc(C(C)(C)C)c(O)c(C(C)(C)C)c1)NCCC3`, the melting point was in the range of 208 to 210 °C. With `CC1SC(=O)NN=C1c1ccc2c(c1)C(=Cc1ccccn1)C(=O)N2` (configuration not stated) the figure was 296 °C.

`CC(C)(O)C(O)(C(F)(F)F)C(F)(F)F` gave a melting point of 48 °C. As for `CC(=O)COc1ccc(Cl)cc1C(=O)O`, the figure is 90 to 91 °C; as for `Cc1c(C(=O)c2ccc(F)cc2)cccc1[N+](=O)[O-]`, 64 °C.

Molecule `O=Cc1c2ccc3ccccc3c2cc2ccsc12` had a melting point of 199 to 200 °C. `CCCCCCCN(CC1(c2ccccc2)CCCC1)C(=O)Nc1ccc(F)cc1F`: the melting point fell in the range of 88 to 90 °C.

Molecule `Cn1nc(N2CCNCC2)c2ccccc21` registered a melting point of 100 to 102 °C. As for `CS(=O)(=O)c1ccc(-c2c(-c3ccccc3)[nH]c3ccc(Cl)cc23)cc1`, the figure is 273 to 275 °C; as for `CN(C)c1ccnc(-c2ccncc2)n1`, 109 to 110 °C; as for `O=C(NC(=S)NCCSCc1c[nH]cn1)c1ccccc1`, 126 to 128 °C. Regarding `COc1ccc(C=CC(=O)OCCC(C)CCc2ccccc2)c(O)c1` (configuration not stated), the melting point lay within 70 to 73 °C. Molecule `O=C1C=CC2=CN=C(Cc3ccccc3)N3CCC(=C23)N1` came in with a melting point of 226 to 228 °C. In turn, `CCCc1c(O)ccc2ccc(OCC(=O)OC)cc12` gave a melting point of 122 to 124 °C.

In the case of `O=C1COC(C#Cc2cccnc2)(C(F)(F)F)c2cc(Cl)ccc2N1` (configuration not stated), the melting point lay in the range of 219 to 221 °C.
